Experimental data from the NIST ThermoML archive (doi:10.1021/je700205n).

Conditions: Liquid

CCn1cc[n+](C)c1.F[B-](F)(F)F [1-ethyl-3-methylimidazolium tetrafluoroborate]
mass density [kg/m3]
Conditions	293.15 K	303.15 K	313.15 K	323.15 K	333.15 K	343.15 K	353.15 K	393.15 K
100 kPa	1305	1296	1288	1280	1272	1264	1257	1229
1000 kPa	1305	1296	1288	1280	1272	1265	1257	1230
2000 kPa	1306	1297	1289	1281	1273	1265	1258	1230
3000 kPa	1306	1297	1289	1281	1273	1266	1258	1231
4000 kPa	1307	1298	1290	1282	1274	1266	1259	1231
5000 kPa	1307	1298	1290	1282	1274	1267	1259	1232
7500 kPa	1308	1299	1291	1283	1275	1268	1261	1233
10000 kPa	1309	1300	1292	1284	1277	1269	1262	1235
15000 kPa	1311	1303	1295	1287	1279	1272	1264	1238
20000 kPa	1313	1305	1297	1289	1281	1274	1267	1240
25000 kPa	1316	1307	1299	1291	1284	1277	1269	1243
30000 kPa	1318	1309	1301	1294	1286	1279	1272	1246
